Read-outs that look alike come from different tables or passages of the source.
What was measured:
[1] = biological target: T1, hT2R14 (Homo sapiens (Human), UniProt Q9NYV8); test: hT2R14 antagonist high-throughput FLIPR assay, stable cell line with G16g44, agonist aristolochic acid; assay type: cell-based
Procedure, shortened: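 HEK293 cells stably expressing hT2R14 with chimeric G16g44 were stimulated with aristolochic acid (3 μM), giving 70-80% of maximal receptor activity. Test compounds were added together with the agonist, and antagonism was read as fluorescent calcium signal on FLIPR.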

[2] = biological target: hT2R3 (Homo sapiens (Human), UniProt Q9NYW6); test: hT2R panel inhibition, transient HEK293 G16g44, agonist Chloroquine pH6.5 50 μM; assay type: cell-based; settings: HEK293, compound at 25 μM; receptor activated to EC80 with the corresponding agonist; read-out: screening result against bitter receptor 3
Procedure, shortened: (§1)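 Each human T2R transiently transfected into HEK293 cells stably expressing G16g44; functional receptor assays run with the listed bitter agonist at EC80 concentration. Inhibition recorded as reduction of agonist-induced receptor activity in presence of Compound C.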

[3] = biological target: hT2R5 (Homo sapiens (Human), UniProt Q9NYW4); test: hT2R panel inhibition, transient HEK293 G16g44, agonist Picoline 10 mM; assay type: cell-based; settings: HEK293, compound at 25 μM; receptor activated to EC80 with the corresponding agonist; read-out: screening result against bitter receptor 5
Procedure, shortened: as §1

[4] = biological target: hT2R7 (Homo sapiens (Human), UniProt Q9NYW3); test: hT2R panel inhibition, transient HEK293 G16g44, agonist Chloroquine pH6.5 10 mM; assay type: cell-based; settings: HEK293, compound at 25 μM; receptor activated to EC80 with the corresponding agonist; read-out: screening result against bitter receptor 7
Procedure, shortened: as §1

[5] = biological target: hT2R9 (Homo sapiens (Human), UniProt Q9NYW1); test: hT2R panel inhibition, transient HEK293 G16g44, agonist Ofloxacin 1 mM; assay type: cell-based; settings: HEK293, compound at 25 μM; receptor activated to EC80 with the corresponding agonist; read-out: screening result against bitter receptor 9
Protocol: Specifically, in order to evaluate the inhibitory selectivity of the Compound C compound, this compound was tested against 22 human T2Rs which were deorphaned by Senomyx. These receptors and the bitter ligands that activate these human T2Rs are reported in earlier patent applications which are incorporated by reference herein. These 22 human T2Rs are hT2R1, 3, 4, 5, 7, 8, 9, 10, 13, 14, 16, 44, 51, 54, 55, 61, 63, 64, 65, 67, 71 and 75. The amino acid and nucleic acid sequences of all of these T2Rs may be found in these earlier patent applications. These human T2Rs were each individually transiently transfected into HEK293 cells that stably express the promiscuous G protein G16g44 and functional assays were effected using these receptors as disclosed in these same patent applications. […] The ligands were used at EC80 concentration levels. The list of bitter ligands utilized and the tested ligand concentrations are contained in Table 5 of this example.
Relating to the foregoing, FIG. 5 contains experimental results wherein Compound C was tested with different agonist compounds. The inhibition activity is represented by the reduction of receptor activity in the presence of Compound C. […] These 13 hT2Rs are hT2R3, 7, 10, 14, 16, 44, 51, 55, 61, 63, 64, 65, and 71.

[6] = biological target: hT2R10 (Homo sapiens (Human), UniProt Q9NYW0); test: hT2R panel inhibition, transient HEK293 G16g44, agonist Strychnine 50 μM; assay type: cell-based; settings: HEK293, read-out: screening result against bitter receptor 10, compound at 25 μM; receptor activated to EC80 with the corresponding agonist
[7] = biological target: T1, hT2R14; test: hT2R panel inhibition, transient HEK293 G16g44, agonist Aristolochic Acid 2 μM; assay type: cell-based; settings: HEK293, compound at 25 μM; receptor activated to EC80 with the corresponding agonist; read-out: screening result against bitter receptor 14
Procedure, shortened: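 Each hT2R was transiently transfected into HEK293 cells stably expressing G16g44 and assayed functionally for inhibition of agonist response. Agonists were applied at EC80: andrographolide at 0.5 mM for hT2R8 and aristolochic acid at 2 μM for hT2R14.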

[8] = biological target: hT2R16 (Homo sapiens (Human), UniProt Q9NYV7); test: hT2R panel inhibition, transient HEK293 G16g44, agonist Salicin 1 mM; assay type: cell-based; settings: HEK293, compound at 25 μM; receptor activated to EC80 with the corresponding agonist; read-out: screening result against bitter receptor 16
Procedure, shortened: as §1

[9] = biological target: hT2R61 (Homo sapiens (Human), UniProt P59537); test: hT2R panel inhibition, transient HEK293 G16g44, agonist Aristolochic Acid 25 nM; assay type: cell-based; settings: HEK293, compound at 25 μM; receptor activated to EC80 with the corresponding agonist; read-out: screening result against bitter receptor 61
Procedure, shortened: as §1

[10] = biological target: hT2R64 (Homo sapiens (Human), UniProt P59538); test: hT2R panel inhibition, transient HEK293 G16g44, agonist Aristolochic Acid 1 μM; assay type: cell-based; settings: HEK293, compound at 25 μM; receptor activated to EC80 with the corresponding agonist; read-out: screening result against bitter receptor 64
Procedure, shortened: as §1

[11] = system: hT2R65; test: hT2R panel inhibition, transient HEK293 G16g44, agonist Oleuropein 1 mM; assay type: cell-based, human; settings: compound at 25 μM; receptor activated to EC80 with the corresponding agonist
Procedure, shortened: as §1

[12] = biological target: hT2R71 (Homo sapiens (Human), UniProt P59536); test: hT2R panel inhibition, transient HEK293 G16g44, agonist Picric Acid 10 μM; assay type: cell-based; settings: HEK293, compound at 25 μM; receptor activated to EC80 with the corresponding agonist; read-out: screening result against bitter receptor 71
Procedure, shortened: as §1

[13] = system: hT2R44; test: hT2R panel inhibition, transient HEK293 G16g44, agonist Denatonium 0.5 μM; assay type: cell-based, human; settings: compound at 25 μM; receptor activated to EC80 with the corresponding agonist
Procedure, shortened: as §1

[14] = system: hT2R54; test: hT2R panel inhibition, transient HEK293 G16g44, agonist Ranitidine 5 mM; assay type: cell-based, human; settings: compound at 25 μM; receptor activated to EC80 with the corresponding agonist
Procedure, shortened: as §1

[15] = system: hT2R55; test: hT2R panel inhibition, transient HEK293 G16g44, agonist Cinchonine 150 μM; assay type: cell-based, human; settings: compound at 25 μM; receptor activated to EC80 with the corresponding agonist
Procedure, shortened: as §1

[16] = system: hT2R63; test: hT2R panel inhibition, transient HEK293 G16g44, agonist Caffeine 1 mM or Andrographolide 100 μM; assay type: cell-based, human; settings: compound at 25 μM; receptor activated to EC80 with the corresponding agonist
Procedure, shortened: as §1

[17] = system: hT2R67; test: hT2R panel inhibition, transient HEK293 G16g44, agonist Andrographolide 5 μM; assay type: cell-based, human; settings: compound at 25 μM; receptor activated to EC80 with the corresponding agonist
Procedure, shortened: as §1

[18] = biological target: hT2R4 (Homo sapiens (Human), UniProt Q9NYW5); test: hT2R panel inhibition, transient HEK293 G16g44, agonist Chloroquine pH6.5 5 mM; assay type: cell-based; settings: HEK293, compound at 25 μM; receptor activated to EC80 with the corresponding agonist; class symbols; read-out: screening result against bitter receptor 4
Procedure, shortened: as §1

[19] = biological target: hT2R51 (Homo sapiens (Human), UniProt P59533); test: hT2R panel inhibition, transient HEK293 G16g44, agonist Prop 2.5 μM; assay type: cell-based; settings: HEK293, compound at 25 μM; receptor activated to EC80 with the corresponding agonist; read-out: screening result against bitter receptor 51
Procedure, shortened: as §1

[20] = biological target: hT2R75 (Homo sapiens (Human), UniProt P59540); test: hT2R panel inhibition, transient HEK293 G16g44, agonist Strychnine 1 μM; assay type: cell-based; settings: HEK293, read-out: screening result against bitter receptor 75, compound at 25 μM; receptor activated to EC80 with the corresponding agonist
Sequence of hT2R75 (P59540 whole entry): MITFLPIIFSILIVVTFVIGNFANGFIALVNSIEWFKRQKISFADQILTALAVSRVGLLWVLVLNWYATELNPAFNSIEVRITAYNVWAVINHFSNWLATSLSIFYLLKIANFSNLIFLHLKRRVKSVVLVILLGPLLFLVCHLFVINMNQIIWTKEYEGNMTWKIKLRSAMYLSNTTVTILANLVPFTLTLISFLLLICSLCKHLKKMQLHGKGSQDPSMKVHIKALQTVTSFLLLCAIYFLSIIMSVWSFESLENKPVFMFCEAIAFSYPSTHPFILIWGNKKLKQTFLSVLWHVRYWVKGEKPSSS

Sequence of hT2R64 (P59538 whole entry): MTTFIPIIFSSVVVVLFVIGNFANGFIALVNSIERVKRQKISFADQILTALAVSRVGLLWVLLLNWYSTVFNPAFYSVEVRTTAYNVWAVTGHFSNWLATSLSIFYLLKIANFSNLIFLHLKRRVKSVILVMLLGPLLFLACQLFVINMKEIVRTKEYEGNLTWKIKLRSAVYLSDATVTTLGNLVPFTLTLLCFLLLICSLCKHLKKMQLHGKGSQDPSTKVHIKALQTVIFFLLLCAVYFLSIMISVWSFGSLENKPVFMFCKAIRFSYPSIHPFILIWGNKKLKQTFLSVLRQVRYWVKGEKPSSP
Sequence of hT2R3 (Q9NYW6 whole entry): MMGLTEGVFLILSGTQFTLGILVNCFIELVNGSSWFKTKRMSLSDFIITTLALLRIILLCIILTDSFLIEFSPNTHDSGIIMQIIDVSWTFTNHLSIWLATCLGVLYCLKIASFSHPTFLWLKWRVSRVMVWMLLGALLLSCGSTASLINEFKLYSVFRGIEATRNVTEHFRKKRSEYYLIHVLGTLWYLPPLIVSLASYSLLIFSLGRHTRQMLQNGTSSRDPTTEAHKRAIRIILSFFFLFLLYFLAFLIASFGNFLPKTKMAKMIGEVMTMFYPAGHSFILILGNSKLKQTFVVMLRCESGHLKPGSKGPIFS
Sequence of hT2R61 (P59537 whole entry): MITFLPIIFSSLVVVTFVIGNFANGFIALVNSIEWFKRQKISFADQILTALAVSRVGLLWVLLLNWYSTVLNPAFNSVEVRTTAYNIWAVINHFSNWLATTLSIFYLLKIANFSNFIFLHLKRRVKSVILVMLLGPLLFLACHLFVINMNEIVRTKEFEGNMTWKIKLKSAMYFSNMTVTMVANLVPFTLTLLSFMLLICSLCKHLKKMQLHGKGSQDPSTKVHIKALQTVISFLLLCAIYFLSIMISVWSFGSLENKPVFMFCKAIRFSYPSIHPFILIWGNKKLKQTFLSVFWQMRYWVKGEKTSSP
Sequence of hT2R7 (Q9NYW3 whole entry): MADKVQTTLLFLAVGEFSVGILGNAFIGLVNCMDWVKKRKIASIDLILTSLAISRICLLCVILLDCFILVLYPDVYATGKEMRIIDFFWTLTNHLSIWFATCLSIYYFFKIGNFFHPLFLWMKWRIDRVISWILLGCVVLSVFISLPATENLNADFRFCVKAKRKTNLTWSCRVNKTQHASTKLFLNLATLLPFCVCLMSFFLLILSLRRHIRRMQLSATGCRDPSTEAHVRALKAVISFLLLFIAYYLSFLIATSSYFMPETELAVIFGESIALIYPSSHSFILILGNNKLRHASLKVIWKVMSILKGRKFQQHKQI
Sequence of hT2R71 (P59536 whole entry): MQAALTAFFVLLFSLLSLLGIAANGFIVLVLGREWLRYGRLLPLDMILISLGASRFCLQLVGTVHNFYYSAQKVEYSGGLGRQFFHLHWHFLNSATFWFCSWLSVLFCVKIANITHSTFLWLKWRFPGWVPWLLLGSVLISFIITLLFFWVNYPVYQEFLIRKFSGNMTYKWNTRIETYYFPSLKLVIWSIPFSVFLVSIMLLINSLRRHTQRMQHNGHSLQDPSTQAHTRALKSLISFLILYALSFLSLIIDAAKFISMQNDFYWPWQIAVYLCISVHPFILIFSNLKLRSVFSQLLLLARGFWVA
Sequence of hT2R10 (Q9NYW0 whole entry): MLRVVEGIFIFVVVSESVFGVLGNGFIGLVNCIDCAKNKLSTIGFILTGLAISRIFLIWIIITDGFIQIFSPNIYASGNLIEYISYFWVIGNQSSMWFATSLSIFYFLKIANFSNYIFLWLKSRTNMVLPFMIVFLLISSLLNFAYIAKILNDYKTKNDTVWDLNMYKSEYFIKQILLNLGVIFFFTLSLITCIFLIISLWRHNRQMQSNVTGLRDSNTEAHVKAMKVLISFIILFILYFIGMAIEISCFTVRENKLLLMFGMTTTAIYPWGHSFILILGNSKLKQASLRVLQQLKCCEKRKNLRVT
Sequence of hT2R5 (Q9NYW4 whole entry): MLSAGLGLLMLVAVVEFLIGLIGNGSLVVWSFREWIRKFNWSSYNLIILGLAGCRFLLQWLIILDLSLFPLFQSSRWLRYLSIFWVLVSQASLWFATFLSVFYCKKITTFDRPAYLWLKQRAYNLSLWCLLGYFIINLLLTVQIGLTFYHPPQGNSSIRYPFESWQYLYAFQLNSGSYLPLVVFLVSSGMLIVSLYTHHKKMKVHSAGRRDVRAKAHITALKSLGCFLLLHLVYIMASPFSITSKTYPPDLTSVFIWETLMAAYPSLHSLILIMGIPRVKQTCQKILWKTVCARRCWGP
Sequence of hT2R9 (Q9NYW1 whole entry): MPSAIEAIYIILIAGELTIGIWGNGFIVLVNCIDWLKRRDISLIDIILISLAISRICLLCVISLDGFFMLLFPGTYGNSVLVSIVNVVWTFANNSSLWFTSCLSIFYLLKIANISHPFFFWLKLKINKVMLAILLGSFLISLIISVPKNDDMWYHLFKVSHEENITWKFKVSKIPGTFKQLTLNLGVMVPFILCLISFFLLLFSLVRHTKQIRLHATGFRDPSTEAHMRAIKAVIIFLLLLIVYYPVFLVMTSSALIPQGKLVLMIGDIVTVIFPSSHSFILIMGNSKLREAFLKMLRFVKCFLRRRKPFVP
Sequence of hT2R16 (Q9NYV7 whole entry): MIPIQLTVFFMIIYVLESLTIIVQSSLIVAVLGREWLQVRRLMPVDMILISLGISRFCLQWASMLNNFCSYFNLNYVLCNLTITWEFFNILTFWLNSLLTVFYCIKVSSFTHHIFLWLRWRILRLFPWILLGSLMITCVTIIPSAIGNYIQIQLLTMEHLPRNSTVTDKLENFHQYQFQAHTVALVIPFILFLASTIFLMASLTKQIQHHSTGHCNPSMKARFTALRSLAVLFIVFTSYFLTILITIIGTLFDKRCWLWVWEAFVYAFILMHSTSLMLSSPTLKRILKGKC
T1 sequence (Q9NYV8 whole entry): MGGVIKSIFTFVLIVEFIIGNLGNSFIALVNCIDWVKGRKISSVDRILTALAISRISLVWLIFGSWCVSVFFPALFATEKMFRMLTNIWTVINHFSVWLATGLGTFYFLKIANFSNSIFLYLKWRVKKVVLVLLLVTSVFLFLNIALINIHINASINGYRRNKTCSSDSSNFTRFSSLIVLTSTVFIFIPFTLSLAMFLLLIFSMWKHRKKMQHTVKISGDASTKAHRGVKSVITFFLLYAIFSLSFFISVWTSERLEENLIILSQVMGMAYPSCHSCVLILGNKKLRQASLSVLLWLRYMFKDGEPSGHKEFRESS
Sequence of hT2R4 (Q9NYW5 whole entry): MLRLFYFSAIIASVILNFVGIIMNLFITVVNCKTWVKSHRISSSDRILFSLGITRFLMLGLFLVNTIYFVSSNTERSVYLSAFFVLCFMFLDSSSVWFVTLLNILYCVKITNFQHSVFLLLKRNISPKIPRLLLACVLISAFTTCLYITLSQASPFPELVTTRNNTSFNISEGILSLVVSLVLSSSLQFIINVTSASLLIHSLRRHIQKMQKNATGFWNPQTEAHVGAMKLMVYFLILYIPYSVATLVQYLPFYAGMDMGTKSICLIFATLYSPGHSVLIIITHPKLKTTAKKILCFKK
Sequence of hT2R51 (P59533 whole entry): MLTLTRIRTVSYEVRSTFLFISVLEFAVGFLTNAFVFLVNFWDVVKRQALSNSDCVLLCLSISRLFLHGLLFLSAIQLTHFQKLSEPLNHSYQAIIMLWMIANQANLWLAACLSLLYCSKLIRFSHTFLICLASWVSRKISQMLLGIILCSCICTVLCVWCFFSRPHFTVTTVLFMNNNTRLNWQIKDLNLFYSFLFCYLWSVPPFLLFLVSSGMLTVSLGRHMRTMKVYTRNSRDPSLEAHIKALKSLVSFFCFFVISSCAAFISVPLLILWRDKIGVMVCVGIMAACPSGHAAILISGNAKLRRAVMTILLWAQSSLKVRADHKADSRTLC

| Structure (SMILES) | inhibition at 25 µM [2] | inhibition at 25 µM [3] | inhibition at 25 µM [4] | inhibition at 25 µM [5] | inhibition at 25 µM [6] | inhibition at 25 µM [7] | inhibition at 25 µM [8] | inhibition at 25 µM [9] | inhibition at 25 µM [10] | screening result against bitter receptor 65 [11] | inhibition at 25 µM [12] | screening result against bitter receptor 44 [13] | IC50 ([1]; Table C, read-out: hT2R14 IC50) | screening result against bitter receptor 54 [14] | screening result against bitter receptor 55 [15] | screening result against bitter receptor 63 [16] | screening result against bitter receptor 67 [17] | inhibition at 25 µM [18] | inhibition at 25 µM [19] | inhibition at 25 µM [20] | also measured |
| --- | --- | --- | --- | --- | --- | --- | --- | --- | --- | --- | --- | --- | --- | --- | --- | --- | --- | --- | --- | --- | --- |
| COc1cc(OC)c(CN(Cc2ccccc2)S(=O)(=O)c2ccc(C(=O)O)cc2)c(OC)c1 [Example 5-15, 4-(N-benzyl-N-(2,4,6-trimethoxybenzyl)sulfamoyl)benzoic acid] | 40 to 60% | 20 to 40% | 20 to 40% | 20 to 40% | 40 to 60% | > 80% | 20 to 40% | > 80% | 60 to 80% | + (20% to 40% inhibition = +) | 60 to 80% |  |  |  |  |  |  |  |  |  | IC50 ([1]; read-out: IC50 on hT2R14 bitter receptor): 10.8 µM |
| COc1ccc(CN(Cc2ccccc2F)S(=O)(=O)c2ccc(C(=O)O)cc2)cc1 [Example 5-31, 4-(N-(2-fluorobenzyl)-N-(4-methoxybenzyl)sulfamoyl)benzoic acid] | 20 to 40% |  |  | 20 to 40% |  |  |  |  |  |  |  | + (20% to 40% inhibition = +) |  |  |  |  |  |  |  |  |  |
| COc1ccc(CN(Cc2cc(OC)cc(OC)c2)S(=O)(=O)c2ccc(C(=O)O)cc2)cc1 [Example 5-67, 4-(N-(3,5-dimethoxybenzyl)-N-(4-methoxybenzyl)sulfamoyl)benzoic acid] | 40 to 60% | 20 to 40% |  | 20 to 40% | 40 to 60% | 60 to 80% | 20 to 40% | 40 to 60% | 60 to 80% | + (20% to 40% inhibition = +) | 40 to 60% | ++ (40% to 60% inhibition = ++) | 12.1 µM | ++ (40% to 60% inhibition = ++) | ++++ (80% or greater inhibition = ++++) | ++++ (80% or greater inhibition = ++++) | + (20% to 40% inhibition = +) |  |  |  |  |
| O=C(O)c1ccc(S(=O)(=O)N(Cc2ccccc2)Cc2cccc(C(=O)O)c2)cc1 [Example 5-76, 3-((N-benzyl-4-carboxyphenylsulfonamido)methyl)benzoic acid] | 20 to 40% | 20 to 40% |  | 20 to 40% |  |  |  | 40 to 60% |  |  | 20 to 40% |  |  |  |  | ++ (40% to 60% inhibition = ++) | + (20% to 40% inhibition = +) |  |  |  |  |
| COc1ccc(CN(Cc2ccc(C(=O)O)cc2)S(=O)(=O)c2ccccc2)cc1 [Example 5-102, 4-((N-(4-methoxybenzyl)phenylsulfonamido)methyl) benzoic acid] | 40 to 60% | 20 to 40% | 40 to 60% |  | 20 to 40% | > 80% | 20 to 40% | > 80% | 60 to 80% | ++ (40% to 60% inhibition = ++) | 60 to 80% | +++ (60% to 80% inhibition = +++) | 2.22 µM | + (20% to 40% inhibition = +) | ++++ (80% or greater inhibition = ++++) | + (20% to 40% inhibition = +) | + (20% to 40% inhibition = +) | 40 to 60% | 20 to 40% | 20 to 40% |  |
| O=C(O)c1ccc(CN(Cc2ccccc2F)S(=O)(=O)c2ccccc2)cc1 [Example 5-103, 4-((N-(2-fluorobenzyl)phenylsulfonamido)methyl)-benzoic acid] | 40 to 60% | 20 to 40% | 20 to 40% |  | 20 to 40% | > 80% | 20 to 40% | > 80% | > 80% | ++ (40% to 60% inhibition = ++) | > 80% | +++ (60% to 80% inhibition = +++) | 0.429 µM | ++ (40% to 60% inhibition = ++) | ++++ (80% or greater inhibition = ++++) | ++ (40% to 60% inhibition = ++) | + (20% to 40% inhibition = +) | 40 to 60% | 20 to 40% | 20 to 40% |  |

Source: patent publication US9247759B2, “Identification of human T2R receptors that respond to bitter compounds that elicit the bitter taste in compositions, and the use thereof in assays to identify compounds that inhibit (block) bitter taste in compositions and use thereof” (SENOMYX, INC., priority 2007, dated 2016)
